Assay results: PubChem BioAssay (NCI)
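Following 48 hours of exposure in 96-well plates, responses at five concentrations were used to interpolate endpoints linearly. GI50 marks 50% less growth. TGI is the concentration that stops growth completely.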

Assays:
Assay in all cases: NCI tumour cell line growth inhibition, 48 h
[1] = tested on: UACC-257 melanoma
[2] = tested on: HOP-92 NSCLC
[3] = tested on: RXF 393 renal
[4] = tested on: A498 renal
[5] = tested on: CAKI-1 renal
[6] = tested on: KM12 colon
[7] = tested on: SK-MEL-5 melanoma
[8] = tested on: SNB-19 CNS
[9] = tested on: OVCAR-5 ovarian
[10] = tested on: LOX IMVI melanoma
[11] = tested on: SW-620 colon
[12] = tested on: HT29 colon
[13] = tested on: SR leukemia
[14] = tested on: NCI-H226 lung
[15] = tested on: HCT-116 colon
[16] = tested on: PC-3 prostate
[17] = tested on: RPMI-8226 leukemia
[18] = tested on: 786-0 renal
[19] = tested on: HS 578T breast
[20] = tested on: T-47D breast
[21] = tested on: A549 NSCLC
[22] = tested on: HL-60(TB) leukemia
[23] = tested on: NCI/ADR-RES ovarian
[24] = tested on: MDA-MB-435
[25] = tested on: SF-268 CNS
[26] = tested on: UO-31 renal
[27] = tested on: TK-10 renal
[28] = tested on: OVCAR-4 ovarian
[29] = tested on: SK-MEL-2 melanoma
[30] = tested on: HCC-2998 colon
[31] = tested on: SNB-75 CNS
[32] = tested on: HOP-62 NSCLC
[33] = tested on: IGROV1 ovarian
[34] = tested on: COLO 205 colon
[35] = tested on: DU-145 prostate
[36] = tested on: MDA-MB-231 breast
[37] = tested on: MALME-3M melanoma
[38] = tested on: NCI-H460 lung
[39] = tested on: CCRF-CEM leukemia
[40] = tested on: HCT-15 colon
[41] = tested on: M14 melanoma
[42] = tested on: ACHN renal
[43] = tested on: SF-295 CNS
[44] = tested on: U251 CNS
[45] = tested on: UACC-62 melanoma
[46] = tested on: EKVX NSCLC
[47] = tested on: NCI-H23 lung
[48] = tested on: SK-MEL-28 melanoma
[49] = tested on: OVCAR-8 ovarian
[50] = tested on: OVCAR-3 ovarian
[51] = tested on: MCF7 breast
[52] = tested on: SK-OV-3 ovarian
[53] = tested on: K-562 leukemia
[54] = tested on: NCI-H522 lung
[55] = tested on: MOLT-4 leukemia
[56] = tested on: SF-539 CNS

## CCOC(=O)/C=C/c1cc2cc(-c3csc4ccccc34)ccc2[nH]1
[1]
  GI50: 12.6 µM
  TGI: 25.2 µM
[2]
  GI50: 10.7 µM
  TGI: 29.5 µM
[3]
  GI50: 3.86 µM
[4]
  GI50: 12 µM
  TGI: 24.6 µM
[5]
  GI50: 3.13 µM
  TGI: 15.2 µM
[6]
  GI50: 2.67 µM
  TGI: 7.93 µM
[7]
  GI50: 4.52 µM
  TGI: 16.6 µM
[8]
  GI50: 16 µM
  TGI: 33.5 µM
[9]
  GI50: 21.6 µM
  TGI: 42.6 µM
[10]
  GI50: 5 µM
  TGI: 18.9 µM
[11]
  GI50: 3.54 µM
  TGI: 14.1 µM
[12]
  GI50: 3.39 µM
  TGI: 11.6 µM
[13]
  GI50: 1.98 µM
  TGI: 8.04 µM
[14]
  GI50: 10.6 µM
  TGI: 32.7 µM
[15]
  GI50: 2.96 µM
  TGI: 31.4 µM
[16]
  GI50: 3.42 µM
  TGI: 13.8 µM
[17]
  GI50: 2.87 µM
  TGI: 12.3 µM
[18]
  GI50: 11.3 µM
  TGI: 26.9 µM
[19]
  GI50: 5.07 µM
  TGI: 22.2 µM
[20]
  GI50: 4.45 µM
  TGI: 18 µM
[21]
  GI50: 4.39 µM
  TGI: 18.1 µM
[22]
  GI50: 2.43 µM
  TGI: 6.57 µM
[23]
  GI50: 10 µM
  TGI: 55.3 µM
[24]
  GI50: 1.91 µM
  TGI: 4.73 µM
[25]
  GI50: 11 µM
  TGI: 26.6 µM
[26]
  GI50: 4.94 µM
  TGI: 19.1 µM
[27]
  GI50: 14.4 µM
  TGI: 29 µM
[28]
  GI50: 7.1 µM
  TGI: 19.8 µM
[29]
  GI50: 4.92 µM
  TGI: 17.3 µM
[30]
  GI50: 14.4 µM
  TGI: 30.2 µM
[31]
  GI50: 6.14 µM
  TGI: 20.8 µM
[32]
  GI50: 5.71 µM
  TGI: 24.4 µM
[33]
  GI50: 4.62 µM
  TGI: 17.4 µM
[34]
  GI50: 7.16 µM
  TGI: 21.3 µM
[35]
  GI50: 4.83 µM
  TGI: 16.6 µM
[36]
  GI50: 5.26 µM
  TGI: 18.2 µM
[37]
  GI50: 6.81 µM
  TGI: 20.5 µM
[38]
  GI50: 15.5 µM
  TGI: 31.3 µM
[39]
  GI50: 3.04 µM
  TGI: 11.4 µM
[40]
  GI50: 3.59 µM
  TGI: 15.8 µM
[41]
  GI50: 5.42 µM
  TGI: 22.8 µM
[42]
  GI50: 7.15 µM
  TGI: 20.1 µM
[43]
  GI50: 4.11 µM
  TGI: 16 µM
[44]
  GI50: 5.49 µM
  TGI: 18.8 µM
[45]
  GI50: 6.76 µM
  TGI: 19.6 µM
[46]
  GI50: 7.36 µM
  TGI: 20.2 µM
[47]
  GI50: 18.3 µM
  TGI: 47.8 µM
[48]
  GI50: 10.1 µM
  TGI: 21.6 µM
[49]
  GI50: 3.79 µM
  TGI: 13.7 µM
[50]
  GI50: 5.34 µM
  TGI: 17.1 µM
[51]
  GI50: 3.34 µM
  TGI: 15.3 µM
[52]
  GI50: 15.2 µM
  TGI: 28.7 µM
[53]
  GI50: 2.09 µM
  TGI: 10.3 µM
[54]
  GI50: 4.19 µM
  TGI: 17 µM
[55]
  GI50: 2.44 µM
  TGI: 10.4 µM
[56]
  GI50: 14 µM
  TGI: 27.1 µM
